Assay results published in article PMC8839189, “Bis-Amiridines as Acetylcholinesterase and Butyrylcholinesterase Inhibitors: N-Functionalization Determines the Multitarget Anti-Alzheimer’s Activity Profile” (Molecules, 2022).
Values joined by “and” are separate entries in the source; they are usually repeats but may differ in a detail not shown here. Identical values can stand only once. Like-named read-outs stand apart in the source and are kept apart here.

Columns and labels:
[1] = ABTS radical cation scavenging activity assay; conditions: 1 h incubation; for ABTS•+-Scavenging Activity, TEAC: Trolox equivalent antioxidant capacity; for IC50: ABTS•+ 100 μM
Protocol: Radical scavenging activity of the compounds was assessed using the ABTS radical cation (ABTS^•+) decolorization assay with modifications, described in detail in [30, 32]. ABTS (2,2′-azino-bis-(3-ethylbenzothiazoline-6-sulfonic acid)) was purchased from Tokyo Chemical Industry Co., Ltd. (Tokyo, Japan), potassium persulfate (dipotassium peroxodisulfate), Trolox (6-hydroxy-2,5,7,8-tetramethylchroman-2-carboxylic acid), HPLC-grade ethanol, and DMSO were obtained from Sigma-Aldrich. All tested compounds were dissolved in DMSO.
The reaction was monitored for 1 h with an interval of 1–10 min. Data are given for 1 h of incubation of compounds with ABTS^•+ (100 μM final concentration). The reduction in absorbance was measured spectrophotometrically at 734 nm using xMark UV/VIS microplate spectrophotometer (Bio-Rad, Hercules, CA, USA). Ethanol blanks were run in each assay. Values were obtained from three replicates of each sample and three independent experiments. Standard antioxidant Trolox was used as a reference compound. Trolox equivalent antioxidant capacity (TEAC) values were determined as the ratio between the slopes obtained from the linear correlation of the ABTS radical absorbance with the concentrations of tested compounds and Trolox.

[2] = tested on: porcine liver CES; test: CES inhibition, 4-NPA substrate; type: biochemical; conditions: compound concentration 20 µM
[3] = target: T1, EeAChE PAS (Electrophorus electricus, UniProt O42275); test: Propidium iodide displacement from the PAS of EeAChE; type: binding, Electric eel; conditions: compound concentration 20 µM
T1 construct: purchased Sigma-Aldrich type VI-S
T1 sequence (O42275 24-633): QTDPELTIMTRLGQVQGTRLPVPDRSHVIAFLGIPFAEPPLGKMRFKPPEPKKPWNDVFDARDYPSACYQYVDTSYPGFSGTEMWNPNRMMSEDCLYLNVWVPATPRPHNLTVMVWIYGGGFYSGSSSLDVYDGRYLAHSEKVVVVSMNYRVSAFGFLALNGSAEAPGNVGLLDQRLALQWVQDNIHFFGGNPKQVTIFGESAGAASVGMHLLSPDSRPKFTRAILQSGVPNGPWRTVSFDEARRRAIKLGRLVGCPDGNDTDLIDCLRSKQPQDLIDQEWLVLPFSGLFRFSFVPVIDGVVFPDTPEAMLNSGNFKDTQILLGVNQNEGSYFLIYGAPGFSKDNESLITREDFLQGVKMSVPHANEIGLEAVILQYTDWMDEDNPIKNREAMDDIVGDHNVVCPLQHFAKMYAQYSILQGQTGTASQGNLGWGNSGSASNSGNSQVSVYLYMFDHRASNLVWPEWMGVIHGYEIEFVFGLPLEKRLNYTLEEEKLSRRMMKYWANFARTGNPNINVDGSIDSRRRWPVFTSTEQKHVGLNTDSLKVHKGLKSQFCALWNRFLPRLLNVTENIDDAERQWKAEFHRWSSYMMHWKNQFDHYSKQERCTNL
Protocol: The enzyme was Electric eel AChE (EeAChE type VI-S, lyophilized powder, Sigma-Aldrich). We selected this source of AChE for consistency with our other reports and because of the purity, specific activity, and lower cost compared to human AChE.
The assay is based on the high level of fluorescence intensity of propidium iodide bound with AChE decreasing in the presence of test compounds that competitively displace propidium iodide from the AChE PAS [25, 27]. Specificially, EeAChE ([…] final concentration) is incubated with the test compound (20 μM in 1 mM Tris-HCl buffer pH 8.0, 25 °C, for 15 min). Propidium iodide (final concentration 8 μM) is then added for a further 15-min incubation and the fluorescence spectrum is taken (530 nm (excitation) and 600 nm (emission)). The same concentration of propidium iodide in the Tris-HCI buffer was used as the blank. Triplicate determinations were recorded from a FLUOStar Optima microplate reader and results calculated via the following equation:% Displacement = 100 − (IFAChE+ Propidium + inhibitor/IFAChE + Propidium) × 100(1) where IFAChE + Propidium = fluorescence intensity of propidium iodide associated with AChE in the absence of the test compound (taken as 100%), and IFAChE + Propidium + inhibitor = fluorescence intensity of propidium iodide associated with AChE in the presence of the test compound.

[4] = target: T2, equine serum BChE (Equus caballus, UniProt P81908); test: biochemical; conditions: n = 3
T2 construct: we used human erythrocyte AChE, equine serum BChE, and porcine liver CES; purchased Sigma-Aldrich; host or cells: equine serum
T2 sequence (P81908 whole entry): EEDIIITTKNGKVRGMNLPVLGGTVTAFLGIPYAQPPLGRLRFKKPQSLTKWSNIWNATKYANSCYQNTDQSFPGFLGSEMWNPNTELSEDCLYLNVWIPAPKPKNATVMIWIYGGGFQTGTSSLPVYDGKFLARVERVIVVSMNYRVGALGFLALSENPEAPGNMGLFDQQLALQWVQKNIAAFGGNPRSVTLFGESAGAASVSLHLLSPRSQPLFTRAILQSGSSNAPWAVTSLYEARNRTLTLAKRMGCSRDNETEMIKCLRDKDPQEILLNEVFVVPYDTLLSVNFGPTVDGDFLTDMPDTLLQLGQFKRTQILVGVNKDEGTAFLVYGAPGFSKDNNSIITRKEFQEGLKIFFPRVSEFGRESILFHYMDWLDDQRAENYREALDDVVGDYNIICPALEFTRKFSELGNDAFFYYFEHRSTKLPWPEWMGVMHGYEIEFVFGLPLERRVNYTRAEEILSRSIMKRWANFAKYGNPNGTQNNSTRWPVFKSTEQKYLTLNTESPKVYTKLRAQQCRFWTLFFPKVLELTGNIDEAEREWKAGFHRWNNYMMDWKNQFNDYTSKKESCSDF

[5] = target: human erythrocyte AChE (Homo sapiens, UniProt P22303); test: biochemical
Chain of human erythrocyte AChE (P22303 other isoform, or with tags, fused parts or gaps): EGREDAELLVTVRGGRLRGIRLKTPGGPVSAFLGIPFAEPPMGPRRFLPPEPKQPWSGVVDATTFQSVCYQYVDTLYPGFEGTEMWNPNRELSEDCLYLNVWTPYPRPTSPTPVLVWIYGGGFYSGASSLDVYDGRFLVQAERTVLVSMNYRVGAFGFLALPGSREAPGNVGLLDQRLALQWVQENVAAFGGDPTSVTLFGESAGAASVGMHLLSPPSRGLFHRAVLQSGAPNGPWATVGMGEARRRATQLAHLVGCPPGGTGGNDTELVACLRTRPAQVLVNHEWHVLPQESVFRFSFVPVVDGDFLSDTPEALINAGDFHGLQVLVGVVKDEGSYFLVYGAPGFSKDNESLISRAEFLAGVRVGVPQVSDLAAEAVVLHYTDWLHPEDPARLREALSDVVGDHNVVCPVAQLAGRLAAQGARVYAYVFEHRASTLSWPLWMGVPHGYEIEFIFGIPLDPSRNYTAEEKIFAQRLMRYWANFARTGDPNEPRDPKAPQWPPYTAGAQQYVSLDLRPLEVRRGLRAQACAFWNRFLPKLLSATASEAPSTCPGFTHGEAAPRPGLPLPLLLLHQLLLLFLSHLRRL

[6] = Ferric reducing antioxidant power (FRAP) assay; design: key: ratio of Trolox to test compound concentration giving same FRAP effect; conditions: Trolox equivalents; compound concentration 20 µM
Protocol: The ferric reducing antioxidant power (FRAP) assay proposed by Benzie and Strain [106, 107] was modified to be performed in 96-well microplates, as described in detail in [32]. The FRAP reagent contained 2.5 mL of 10 mM TPTZ (2,4,6-tris(2-pyridyl)-s-triazine, Sigma-Aldrich) solution in 40 mM HCl, 2.5 mL of 20 mM FeCl3 (Sigma-Aldrich) in distilled water and 25 mL of 0.3 M acetate buffer (pH 3.6). Aliquots of 10 µL of the tested compound (compounds 3, 5 or reference substance) dissolved in DMSO (0.5 mM) were placed in quadruplicate. Absorbance was measured at the wavelength of 593 nm after 60-min incubation at 37 °C. In each case, Trolox was used as a reference compound to obtain the standard curve and value was calculated with respect to the activity of Trolox and expressed as Trolox equivalents (TE)—the values calculated as the ratio of the concentrations of Trolox and the test compound, resulting in the same effect on ferric reducing activity.

[7] = target: β-amyloid (1–42) (Aβ42) (Homo sapiens, UniProt P05067); test: Inhibition of Aβ42 self-aggregation, Thioflavin T fluorescence; type: biochemical; conditions: Aβ42 50 µM, compound 100 µM
Chain of β-amyloid (1–42) (Aβ42) (P05067 672-713): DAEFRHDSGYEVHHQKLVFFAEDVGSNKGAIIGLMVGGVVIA
Protocol: The inhibitory effect of the test compounds toward Aβ42 self-aggregation was determined using the Thioflavin T (ThT) fluorescence method with minor modifications. […] Therefore, the decrease in ThT fluorescence correlates with the activity of studied compounds to inhibit the formation of amyloid aggregates.
A total of 1 mg of lyophilized HFIP-pretreated Aβ42 from rPeptide (Watkinsville, GA, USA) was dissolved in DMSO to obtain a stable initial solution ([Aβ42] = 500 μM), then it was aliquoted and stored at −20 °C.
Then, the samples were incubated for 24 h at 37 °C without stirring in the absence (base level of Aβ42 self-aggregation, control) or presence of the test compounds. Myricetin and propidium iodide were used as references (positive controls). All compounds were used at a concentration of 100 µM. […] Analyses were performed with a FLUOStar Optima microplate reader (LabTech, Ortenberg, Germany). […] Each assay was run in triplicate.

[8] = mean ± SEM, read-out: Equine Serum BChE, IC50

In the case of `Nc1c2c(nc3c1CCC3)CCCC2` [Amiridine], the “ABTS•+-Scavenging Activity, TEAC” value [1] is reported as 0.04 ± 0.003.
With `O=[N+]([O-])c1ccc(OP(=O)(O)Oc2ccc([N+](=O)[O-])cc2)cc1` [BNPP, bis-4-nitrophenyl phosphate, reference compound] the “Porcine Liver CES, (%) inhibition” value [2] was 99.1 ± 0.93 ^3%.
In the case of `O=C(CNCCCNCC(=O)Nc1c2c(nc3c1CCC3)CCCC2)Nc1c2c(nc3c1CCC3)CCCC2` [Compound 3b], the “Displacement of Propidium from EeAChE PAS” value (“Displacement of Propidium” below) [3] is reported as 14.7 ± 1.2%, the “Porcine Liver CES, (%) inhibition” value [2] is reported as 4.4 ± 0.5% and the IC50 [4, 8] is reported as 0.128 ± 0.002 µM. For the same compound, the IC50 [5] was 2.91 ± 0.74 µM, the IC50 [1] was greater than 200 µM and the “ABTS•+-Scavenging Activity, TEAC” value [1] was 0.05 ± 0.003. For the same compound, the “FRAP, TE” value [6] was 0.05 ± 0.01.
For `O=C(CNCCCCNCC(=O)Nc1c2c(nc3c1CCC3)CCCC2)Nc1c2c(nc3c1CCC3)CCCC2` [Compound 3c], the “Displacement of Propidium” value [3] was 17.7 ± 1.4%, the “Porcine Liver CES, (%) inhibition” value [2] was 0.8 ± 0.2% and the IC50 ([4]; MEAN ± SEM, read-out: IC50 for BChE inhibition (Figure S25)) was 0.0696 µM. For the same compound, the IC50 [4, 8] was 0.067 ± 0.001 µM, the IC50 [5] was 1.46 ± 0.03 µM and the IC50 [1] was roughly 200 µM. The “ABTS•+-Scavenging Activity, TEAC” value [1] was 0.10 ± 0.005.
In the case of `O=C(CNCCCCCCNCC(=O)Nc1c2c(nc3c1CCC3)CCCC2)Nc1c2c(nc3c1CCC3)CCCC2` [Compound 3d], the “Displacement of Propidium” value [3] is reported as 11.2 ± 0.8%, the “Porcine Liver CES, (%) inhibition” value [2] is reported as 6.0 ± 0.6% and the IC50 [4, 8] is reported as 1.11 ± 0.04 µM. The IC50 [5] was 1.39 ± 0.1 µM.
With `O=C(CNCCCCCCCCNCC(=O)Nc1c2c(nc3c1CCC3)CCCC2)Nc1c2c(nc3c1CCC3)CCCC2` [Compound 3e] the “Displacement of Propidium” value [3] was 13.2 ± 1.0%, the “Porcine Liver CES, (%) inhibition” value [2] was 5.1 ± 0.9% and the IC50 [4, 8] was 6.65 ± 0.5 µM. For the same compound, the IC50 [5] was 11.7 ± 1.1 µM, the IC50 [1] was greater than 200 µM and the “ABTS•+-Scavenging Activity, TEAC” value [1] was 0.04 ± 0.002. The “FRAP, TE” value [6] was 0.05 ± 0.01.
In the case of `S=C(NCCNC(=S)Nc1c2c(nc3c1CCC3)CCCC2)Nc1c2c(nc3c1CCC3)CCCC2` [Compound 5a, 2,2′-Ethane-1,2-diylbis[N-(2,3,5,6,7,8-hexahydro-1H-cyclopenta[b]quinolin-9-yl)(thiourea)]], the “Displacement of Propidium” value [3] is reported as 7.6 ± 0.6%, the “Porcine Liver CES, (%) inhibition” value [2] is reported as 4.3 ± 0.2% and the inhibition at 100 µM [7] is reported as 2.9 ± 0.2%. The IC50 [4, 8] was 4.08 ± 0.23 µM, the IC50 [5] was 96 ± 3.7 µM and the IC50 [1] was 7.6 ± 0.4 µM. For the same compound, the “ABTS•+-Scavenging Activity, TEAC” value [1] was 2.1 ± 0.07 and the “FRAP, TE” value [6] was 0.52 ± 0.04.
For `S=C(NCCCNC(=S)Nc1c2c(nc3c1CCC3)CCCC2)Nc1c2c(nc3c1CCC3)CCCC2` [Compound 5b], the “Displacement of Propidium” value [3] was 9.3 ± 0.8%, the “Porcine Liver CES, (%) inhibition” value [2] was 4.2 ± 0.5% and the inhibition at 100 µM [7] was 1.6 ± 0.1%. The IC50 [4, 8] was 0.689 ± 0.025 µM, the IC50 [5] was 10.9 ± 1 µM and the IC50 [1] was 9.9 ± 0.5 µM. The “ABTS•+-Scavenging Activity, TEAC” value [1] was 1.9 ± 0.08 and the “FRAP, TE” value [6] was 0.50 ± 0.03.
In the case of `S=C(NCCCCNC(=S)Nc1c2c(nc3c1CCC3)CCCC2)Nc1c2c(nc3c1CCC3)CCCC2` [Compound 5c], the “Displacement of Propidium” value [3] is reported as 10.0 ± 0.8%, the “Porcine Liver CES, (%) inhibition” value [2] is reported as 9.6 ± 0.8% and the inhibition at 100 µM [7] is reported as 17.2 ± 1.5%. It also gave an IC50 [4, 8] of 0.802 ± 0.081 µM, an IC50 [5] of 7.53 ± 0.59 µM and an IC50 [1] of 9.7 ± 0.6 µM. For the same compound, the “ABTS•+-Scavenging Activity, TEAC” value [1] was 1.8 ± 0.05 and the “FRAP, TE” value [6] was 0.35 ± 0.02.
With `S=C(NCCCCCCNC(=S)Nc1c2c(nc3c1CCC3)CCCC2)Nc1c2c(nc3c1CCC3)CCCC2` [Compound 5e] the “Displacement of Propidium” value [3] was 11.1 ± 0.9%, the “Porcine Liver CES, (%) inhibition” value [2] was 10.3 ± 1.0% and the inhibition at 100 µM [7] was 14.3 ± 1.1%. The IC50 [4, 8] was 0.769 ± 0.02 µM, the IC50 [5] was 4.08 ± 0.46 µM and the IC50 [1] was 10.9 ± 0.7 µM. For the same compound, the “ABTS•+-Scavenging Activity, TEAC” value [1] was 1.5 ± 0.07 and the “FRAP, TE” value [6] was 0.49 ± 0.01.
For `S=C(NCCCCCCCNC(=S)Nc1c2c(nc3c1CCC3)CCCC2)Nc1c2c(nc3c1CCC3)CCCC2` [Compound 5f], the “Displacement of Propidium” value [3] was 2.5 ± 0.2%, the “Porcine Liver CES, (%) inhibition” value [2] was 5.8 ± 0.3% and the inhibition at 100 µM [7] was 3.7 ± 0.3%. For the same compound, the IC50 [4, 8] was 1.18 ± 0.08 µM, the IC50 [5] was 6.28 ± 0.46 µM and the IC50 [1] was 12.4 ± 0.8 µM. For the same compound, the “ABTS•+-Scavenging Activity, TEAC” value [1] was 1.2 ± 0.05 and the “FRAP, TE” value [6] was 0.55 ± 0.01.
For `S=C(NCCCCCCCCNC(=S)Nc1c2c(nc3c1CCC3)CCCC2)Nc1c2c(nc3c1CCC3)CCCC2` [Compound 5g], the “Displacement of Propidium” value [3] was 2.2 ± 0.2%, the “Porcine Liver CES, (%) inhibition” value [2] was 15.9 ± 1.5% and the inhibition at 100 µM [7] was 5.2 ± 0.4%. The IC50 [4, 8] was 1.45 ± 0.09 µM, the IC50 [5] was 26.6 ± 0.6 µM and the IC50 [1] was 10.8 ± 0.6 µM. For the same compound, the “ABTS•+-Scavenging Activity, TEAC” value [1] was 1.5 ± 0.07 and the “FRAP, TE” value [6] was 0.85 ± 0.03.
For `CC[N+](C)(CC)CCC[n+]1c(-c2ccccc2)c2cc(N)ccc2c2ccc(N)cc21.[I-].[I-]` [Propidium iodide, reference compound], the “Inhibition of Aβ42 Self-Aggregation” value [7] was 90.7 ± 7.1%.
In the case of `Cc1c(C)c2c(c(C)c1O)CCC(C)(C(=O)O)O2` (stereo not shown) [Trolox, 6-hydroxy-2,5,7,8-tetramethylchroman-2-carboxylic acid, reference compound], the IC50 [1] is reported as 20 µM and 20.1 µM, the “ABTS•+-Scavenging Activity, TEAC” value [1] is reported as 1.0 and the “FRAP, TE” value [6] is reported as 1.0.
